According to EP4134440B1, “MALVA SYLVESTRIS FERMENTATION PRODUCT AND USE THEREOF” (Kabushiki Kaisha Yakult Honsha, priority 2020, dated 2021):
Converted amounts (≈) assume the structure as drawn.

Columns and labels:
[1] = tested on: B16 mouse melanoma cells (B16-F1); experiment: Melanin production suppression test: intracellular melanin production level; type: cell-based; conditions: 72 h, three days in 0.5 mM theophylline-containing medium, concentration expressed as evaporation residue concentration
Description: (§1) As cells, B16 mouse melanoma cells (B16-F1) were used. Cells passaged 5-10 times, counting from the time of purchase, were used in the test. As medium, DMEM containing 5 or 10% FBS was used.
A quantity of 500 µL of DMEM medium containing 5% FBS was placed in a 24-well plate, and B16 melanoma cells were seeded 1.4 × 10^4 cells/well ([…]), then cultured for 24 hours at 37°C under 5% CO2. Thereafter, the medium was replaced with 1 mL of 0.5 mM theophylline-containing medium containing a test sample, and the cells were cultured for another three days. […]
After culture was completed, the cells were washed twice with PBS(-) and fixed with 99.5% ethanol. […] After allowing to cool, the entire amount of cell lysate was transferred to a 96-well plate, and the 405 nm absorbance was measured. The intracellular melanin production level per culture well was determined from a calibration curve that used synthetic melanin, and the intracellular melanin production level relative to the control was determined by the following formula. […]
The melanin production-suppressing activity of the obtained fermentation supernatants or unfermented plant extract was measured using B16 melanoma cells in the same way as in Test Example 2. […]

[2] = tested on: B16 mouse melanoma cells (B16-F1); experiment: Melanin production suppression test: intracellular protein level (BCA method); type: cell-based; conditions: 72 h, three days in 0.5 mM theophylline-containing medium, concentration as evaporation residue concentration, * = estimated value
Description: as §1
A quantity of 500 µL of DMEM medium containing 5% FBS was placed in a 24-well plate, and B16 melanoma cells were seeded 1.4 × 10^4 cells/well (7.5 × 10^4 cells/cm^2), then cultured for 24 hours at 37°C under 5% CO2. Thereafter, the medium was replaced with 1 mL of 0.5 mM theophylline-containing medium containing a test sample, and the cells were cultured for another three days.
As the test sample, a fermentation supernatant by each lactic acid bacterium or unfermented Malva sylvestris extract was added to make a blend ratio (volume ratio) of 0.5%, 1%, 2%, or 5% in the medium, taking the undiluted sample solution as 100%. As a control, RO water was added to the medium in the same blend ratios instead of the fermentation supernatant by each lactic acid bacterium or unfermented Malva sylvestris extract. […]
The cell lysate was diluted ten-fold by ultrapure water (milli-Q water) and assayed by the BCA method (Pierce BCA Protein assay kit) using BSA as the reference protein, and the intracellular protein level relative to the control was determined using the following formula. […]

- IC50 [1]: 340 µg/mL (≈ 1250 µM)
- IC50 [2]: 1200 µg/mL (≈ 4410 µM)
SMILES: OC[C@H]1O[C@@H](Oc2ccc(O)cc2)[C@H](O)[C@@H](O)[C@@H]1O [compound 15, Arbutin]
